# Measured values: the kinase profiling compilation of Christmann-Franck et al. (2016)
# “And” between values parts separate entries of the source, which are not always exact repeats. Equal values may be shown once.
# Tests used:
# Assay in all cases: radiometric filter-binding kinase assay, Kinase HotSpot
# GSG2 (human) = GSG2 (human) (UniProt Q8TF76); conditions: compound 0.5 µM; ATP 10 µM
# MST4 (human) = MST4 (human) (UniProt Q9P289); conditions: compound 0.5 µM; ATP 10 µM
# CDK1 CCNA2 (human) = CDK1 CCNA2 (human) (UniProt P06493+P20248); conditions: compound 0.5 µM
# PAK1 (human) = PAK1 (human) (UniProt Q13153); conditions: compound 0.5 µM; ATP 10 µM
# EPHB2 (human) = EPHB2 (human) (UniProt P29323); conditions: compound 0.5 µM; ATP 10 µM
# PNCK (human) = PNCK (human) (UniProt Q6P2M8); conditions: compound 0.5 µM; ATP 10 µM
# MARK2 (human) = MARK2 (human) (UniProt Q7KZI7); conditions: compound 0.5 µM; ATP 10 µM
# MAP2K1 (human) = MAP2K1 (human) (UniProt Q02750); conditions: compound 0.5 µM; ATP 10 µM
# ROCK2 (human) = ROCK2 (human) (UniProt O75116); conditions: compound 0.5 µM; ATP 10 µM
# DSTYK (human) = DSTYK (human) (UniProt Q6XUX3); conditions: compound 0.5 µM; ATP 10 µM
# BRSK1 (human) = BRSK1 (human) (UniProt Q8TDC3); conditions: compound 0.5 µM; ATP 10 µM
# FYN (human) = FYN (human) (UniProt P06241); conditions: compound 0.5 µM; ATP 10 µM
# MINK1 (human) = MINK1 (human) (UniProt Q8N4C8); conditions: compound 0.5 µM; ATP 10 µM
# AURKB (human) = AURKB (human) (UniProt Q96GD4); conditions: compound 0.5 µM; ATP 10 µM
# AURKB (human), sequence (Q96GD4 whole entry, looked up): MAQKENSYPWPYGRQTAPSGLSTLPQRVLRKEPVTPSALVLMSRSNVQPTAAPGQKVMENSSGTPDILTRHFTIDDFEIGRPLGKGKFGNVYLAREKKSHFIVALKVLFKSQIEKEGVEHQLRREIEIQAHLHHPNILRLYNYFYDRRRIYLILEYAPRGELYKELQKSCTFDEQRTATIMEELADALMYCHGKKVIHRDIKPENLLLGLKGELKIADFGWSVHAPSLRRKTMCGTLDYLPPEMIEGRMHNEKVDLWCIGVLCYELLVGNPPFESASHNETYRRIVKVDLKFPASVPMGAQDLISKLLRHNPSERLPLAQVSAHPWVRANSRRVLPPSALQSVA
# RPS6KB2 (human) = RPS6KB2 (human) (UniProt Q9UBS0); conditions: compound 0.5 µM; ATP 10 µM
# PRKG1 (human) = PRKG1 (human) (UniProt Q13976); conditions: compound 0.5 µM; ATP 10 µM
# PRKG1 (human), sequence (Q13976 whole entry, looked up): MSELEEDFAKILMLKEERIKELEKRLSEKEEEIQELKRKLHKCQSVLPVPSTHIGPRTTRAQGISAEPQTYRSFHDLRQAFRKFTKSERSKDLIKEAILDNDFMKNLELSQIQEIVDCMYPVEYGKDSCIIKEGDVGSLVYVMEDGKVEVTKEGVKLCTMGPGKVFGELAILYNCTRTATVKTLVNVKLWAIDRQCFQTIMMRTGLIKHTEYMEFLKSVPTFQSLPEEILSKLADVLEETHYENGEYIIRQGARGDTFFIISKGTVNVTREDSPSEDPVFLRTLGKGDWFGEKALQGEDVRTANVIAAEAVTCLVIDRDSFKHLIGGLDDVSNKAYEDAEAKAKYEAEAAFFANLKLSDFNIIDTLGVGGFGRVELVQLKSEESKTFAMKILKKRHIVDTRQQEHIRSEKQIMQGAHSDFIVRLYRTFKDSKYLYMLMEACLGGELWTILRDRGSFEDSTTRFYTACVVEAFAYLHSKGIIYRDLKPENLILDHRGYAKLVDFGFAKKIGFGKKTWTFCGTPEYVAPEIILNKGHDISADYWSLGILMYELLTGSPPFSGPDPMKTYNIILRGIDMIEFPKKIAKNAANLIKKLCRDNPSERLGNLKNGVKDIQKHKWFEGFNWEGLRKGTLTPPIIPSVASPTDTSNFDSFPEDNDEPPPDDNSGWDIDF
# PRKX (human) = PRKX (human) (UniProt P51817); conditions: compound 0.5 µM; ATP 10 µM
# PRKX (human), sequence (P51817 whole entry, looked up): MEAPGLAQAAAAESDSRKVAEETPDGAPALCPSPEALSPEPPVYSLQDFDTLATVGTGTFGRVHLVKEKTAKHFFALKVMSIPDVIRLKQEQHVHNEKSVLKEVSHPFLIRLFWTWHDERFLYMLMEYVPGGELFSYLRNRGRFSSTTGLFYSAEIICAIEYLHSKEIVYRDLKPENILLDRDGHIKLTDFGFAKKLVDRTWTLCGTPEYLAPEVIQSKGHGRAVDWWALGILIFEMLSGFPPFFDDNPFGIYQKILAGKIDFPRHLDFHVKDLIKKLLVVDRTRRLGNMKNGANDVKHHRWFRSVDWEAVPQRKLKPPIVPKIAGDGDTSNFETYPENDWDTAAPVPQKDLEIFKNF
# CAMK4 (human) = CAMK4 (human) (UniProt Q16566); conditions: compound 0.5 µM; ATP 10 µM
# DYRK3 (human) = DYRK3 (human) (UniProt O43781); conditions: compound 0.5 µM; ATP 10 µM
# DYRK3 (human), sequence (O43781 whole entry, looked up): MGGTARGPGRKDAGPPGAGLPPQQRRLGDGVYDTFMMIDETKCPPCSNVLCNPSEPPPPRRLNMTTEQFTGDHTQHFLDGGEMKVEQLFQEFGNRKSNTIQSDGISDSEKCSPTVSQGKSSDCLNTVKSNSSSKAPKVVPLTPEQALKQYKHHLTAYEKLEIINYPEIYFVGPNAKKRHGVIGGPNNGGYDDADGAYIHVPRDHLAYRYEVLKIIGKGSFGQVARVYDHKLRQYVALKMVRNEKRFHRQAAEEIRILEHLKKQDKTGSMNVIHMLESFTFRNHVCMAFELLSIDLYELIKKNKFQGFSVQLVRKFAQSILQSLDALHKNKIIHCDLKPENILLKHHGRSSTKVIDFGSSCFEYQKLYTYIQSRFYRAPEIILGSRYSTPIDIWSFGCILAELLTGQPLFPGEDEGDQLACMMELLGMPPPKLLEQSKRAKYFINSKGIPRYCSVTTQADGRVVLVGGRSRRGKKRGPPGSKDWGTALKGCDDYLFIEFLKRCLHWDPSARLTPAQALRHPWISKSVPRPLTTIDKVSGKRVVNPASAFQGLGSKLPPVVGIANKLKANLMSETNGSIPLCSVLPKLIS
# FLT3 (human) = FLT3 (human) (UniProt P36888); conditions: compound 0.5 µM; ATP 10 µM
# EPHA3 (human) = EPHA3 (human) (UniProt P29320); conditions: compound 0.5 µM; ATP 10 µM
# EPHA3 (human), sequence (P29320 whole entry, looked up): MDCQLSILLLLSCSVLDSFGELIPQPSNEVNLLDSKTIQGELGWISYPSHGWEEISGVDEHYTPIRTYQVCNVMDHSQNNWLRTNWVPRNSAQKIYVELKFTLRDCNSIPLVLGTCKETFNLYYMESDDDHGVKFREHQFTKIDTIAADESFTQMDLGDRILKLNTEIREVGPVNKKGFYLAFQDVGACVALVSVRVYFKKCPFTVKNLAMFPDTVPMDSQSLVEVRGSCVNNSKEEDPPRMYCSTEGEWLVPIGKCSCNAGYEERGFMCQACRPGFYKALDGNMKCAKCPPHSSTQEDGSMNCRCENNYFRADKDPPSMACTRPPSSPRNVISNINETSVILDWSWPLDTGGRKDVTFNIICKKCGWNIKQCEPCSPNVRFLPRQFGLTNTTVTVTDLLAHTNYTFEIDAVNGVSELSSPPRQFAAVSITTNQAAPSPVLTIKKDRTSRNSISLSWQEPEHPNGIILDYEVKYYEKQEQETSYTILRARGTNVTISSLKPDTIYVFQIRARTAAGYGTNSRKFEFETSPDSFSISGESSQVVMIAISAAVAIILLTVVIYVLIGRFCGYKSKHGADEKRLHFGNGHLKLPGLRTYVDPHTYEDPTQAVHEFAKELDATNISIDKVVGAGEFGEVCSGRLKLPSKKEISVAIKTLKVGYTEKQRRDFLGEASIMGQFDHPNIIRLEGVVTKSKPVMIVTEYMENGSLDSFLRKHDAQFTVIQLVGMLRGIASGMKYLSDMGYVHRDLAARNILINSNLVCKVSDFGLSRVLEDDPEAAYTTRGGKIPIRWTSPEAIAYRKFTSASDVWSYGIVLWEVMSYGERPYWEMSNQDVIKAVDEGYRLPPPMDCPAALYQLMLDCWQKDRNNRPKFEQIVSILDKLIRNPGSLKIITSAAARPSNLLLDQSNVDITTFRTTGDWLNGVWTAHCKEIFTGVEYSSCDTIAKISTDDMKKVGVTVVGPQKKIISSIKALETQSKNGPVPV
# FGFR3 (human) = FGFR3 (human) (UniProt P22607); conditions: compound 0.5 µM; ATP 10 µM
# EPHA2 (human) = EPHA2 (human) (UniProt P29317); conditions: compound 0.5 µM; ATP 10 µM
# IRAK1 (human) = IRAK1 (human) (UniProt P51617); conditions: compound 0.5 µM; ATP 10 µM
# PDGFRB (human) = PDGFRB (human) (UniProt P09619); conditions: compound 0.5 µM; ATP 10 µM
# MAP3K14 (human) = MAP3K14 (human) (UniProt Q99558); conditions: compound 0.5 µM; ATP 10 µM
# BMX (human) = BMX (human) (UniProt P51813); conditions: compound 0.5 µM; ATP 10 µM
# DAPK3 (human) = DAPK3 (human) (UniProt O43293); conditions: compound 0.5 µM; ATP 10 µM
# LTK (human) = LTK (human) (UniProt P29376); conditions: compound 0.5 µM; ATP 10 µM
# AURKA (human) = AURKA (human) (UniProt O14965); conditions: compound 0.5 µM; ATP 10 µM
# AURKA (human), sequence (O14965 whole entry, looked up): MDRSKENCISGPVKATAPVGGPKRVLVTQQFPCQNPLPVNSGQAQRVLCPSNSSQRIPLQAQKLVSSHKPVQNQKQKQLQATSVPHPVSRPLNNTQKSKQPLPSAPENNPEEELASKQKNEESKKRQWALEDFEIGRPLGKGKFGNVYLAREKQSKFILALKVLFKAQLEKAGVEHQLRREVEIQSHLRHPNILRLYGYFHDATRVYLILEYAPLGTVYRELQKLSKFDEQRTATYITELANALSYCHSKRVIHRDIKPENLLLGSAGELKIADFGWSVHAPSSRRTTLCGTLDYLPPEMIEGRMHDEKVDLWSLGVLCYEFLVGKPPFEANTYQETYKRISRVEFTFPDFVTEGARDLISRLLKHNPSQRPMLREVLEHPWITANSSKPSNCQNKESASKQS
# PAK3 (human) = PAK3 (human) (UniProt O75914); conditions: compound 0.5 µM; ATP 10 µM
# MLTK (human) = MLTK (human) (UniProt Q9NYL2); conditions: compound 0.5 µM; ATP 10 µM
# TEK (human) = TEK (human) (UniProt Q02763); conditions: compound 0.5 µM; ATP 10 µM
# PRKCE (human) = PRKCE (human) (UniProt Q02156); conditions: compound 0.5 µM; ATP 10 µM
# EPHA4 (human) = EPHA4 (human) (UniProt P54764); conditions: compound 0.5 µM; ATP 10 µM
# CHEK2 (human) = CHEK2 (human) (UniProt O96017); conditions: compound 0.5 µM; ATP 10 µM
# MAPK11 (human) = MAPK11 (human) (UniProt Q15759); conditions: compound 0.5 µM; ATP 10 µM
# ABL2 (human) = ABL2 (human) (UniProt P42684); conditions: compound 0.5 µM; ATP 10 µM
# BLK (human) = BLK (human) (UniProt P51451); conditions: compound 0.5 µM; ATP 10 µM
# BLK (human), sequence (P51451 whole entry, looked up): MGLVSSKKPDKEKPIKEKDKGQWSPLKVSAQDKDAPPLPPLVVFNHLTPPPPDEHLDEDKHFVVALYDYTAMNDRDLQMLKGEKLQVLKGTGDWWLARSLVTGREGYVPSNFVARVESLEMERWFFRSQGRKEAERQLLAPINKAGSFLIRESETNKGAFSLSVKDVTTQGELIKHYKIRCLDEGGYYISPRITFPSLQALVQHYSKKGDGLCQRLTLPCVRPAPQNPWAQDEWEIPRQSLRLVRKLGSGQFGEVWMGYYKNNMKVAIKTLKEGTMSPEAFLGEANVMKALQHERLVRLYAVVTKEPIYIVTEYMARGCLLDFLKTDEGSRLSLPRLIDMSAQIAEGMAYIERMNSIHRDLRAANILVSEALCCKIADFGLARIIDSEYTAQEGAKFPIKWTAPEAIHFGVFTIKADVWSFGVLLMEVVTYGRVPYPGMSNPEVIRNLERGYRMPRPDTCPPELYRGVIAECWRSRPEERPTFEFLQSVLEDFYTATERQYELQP
# CAMK2G (human) = CAMK2G (human) (UniProt Q13555); conditions: compound 0.5 µM; ATP 10 µM
# CAMK2G (human), sequence (Q13555 whole entry, looked up): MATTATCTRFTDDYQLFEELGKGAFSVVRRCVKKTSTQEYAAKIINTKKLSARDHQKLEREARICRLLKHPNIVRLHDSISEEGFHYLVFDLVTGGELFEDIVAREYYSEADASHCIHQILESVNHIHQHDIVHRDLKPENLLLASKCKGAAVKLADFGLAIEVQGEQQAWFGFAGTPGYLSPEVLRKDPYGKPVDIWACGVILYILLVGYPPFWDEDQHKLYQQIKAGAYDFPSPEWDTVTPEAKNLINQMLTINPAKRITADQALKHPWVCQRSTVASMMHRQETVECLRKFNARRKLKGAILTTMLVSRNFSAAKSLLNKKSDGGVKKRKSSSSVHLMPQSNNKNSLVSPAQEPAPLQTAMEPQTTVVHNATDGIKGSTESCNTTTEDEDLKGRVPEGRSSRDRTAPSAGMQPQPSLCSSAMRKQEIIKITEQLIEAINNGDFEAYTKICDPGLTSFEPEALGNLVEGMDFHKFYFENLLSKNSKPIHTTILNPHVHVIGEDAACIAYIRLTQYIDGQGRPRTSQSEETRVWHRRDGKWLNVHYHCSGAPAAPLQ
# PDGFRA (human) = PDGFRA (human) (UniProt P16234); conditions: compound 0.5 µM; ATP 10 µM
# TXK (human) = TXK (human) (UniProt P42681); conditions: compound 0.5 µM; ATP 10 µM
# TXK (human), sequence (P42681 whole entry, looked up): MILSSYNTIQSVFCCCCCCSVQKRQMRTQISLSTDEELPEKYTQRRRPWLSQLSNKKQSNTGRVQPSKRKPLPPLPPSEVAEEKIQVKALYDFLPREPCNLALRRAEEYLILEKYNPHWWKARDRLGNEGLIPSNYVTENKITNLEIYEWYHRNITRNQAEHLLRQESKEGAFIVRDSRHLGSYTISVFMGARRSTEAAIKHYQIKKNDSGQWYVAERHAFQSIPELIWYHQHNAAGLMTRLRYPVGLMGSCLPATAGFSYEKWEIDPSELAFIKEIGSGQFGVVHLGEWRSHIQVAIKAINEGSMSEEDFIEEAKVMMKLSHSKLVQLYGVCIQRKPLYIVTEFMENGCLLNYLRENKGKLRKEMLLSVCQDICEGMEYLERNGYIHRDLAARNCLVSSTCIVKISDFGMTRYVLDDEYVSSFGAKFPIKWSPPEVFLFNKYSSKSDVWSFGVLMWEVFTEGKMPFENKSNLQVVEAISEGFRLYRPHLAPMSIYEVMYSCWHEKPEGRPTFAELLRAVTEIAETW
structure (smiles),measurement,setting,value
O=C1NC(=O)c2c1c1c3ccccc3[nH]c1c1[nH]c3cc(Br)ccc3c21,residual activity,GSG2 (human),72.9%
same,residual activity,MST4 (human),80.5%
same,residual activity,CDK1 CCNA2 (human); ATP 10 µM,91.9%
same,residual activity,PAK1 (human),87.8%
same,residual activity,EPHB2 (human),99.5%
same,residual activity,PNCK (human),99.4%
same,residual activity,MARK2 (human),40.4%
same,residual activity,MAP2K1 (human),90.3%
same,residual activity,ROCK2 (human),72.7%
same,residual activity,DSTYK (human),65.6%
same,residual activity,BRSK1 (human),21.5%
same,residual activity,FYN (human),95.2%
same,residual activity,MINK1 (human),52.2%
same,residual activity,AURKB (human),44.3%
same,residual activity,RPS6KB2 (human),83.9%
same,residual activity,PRKG1 (human),76% and 90.7%
same,residual activity,PRKX (human),85.1%
same,residual activity,CAMK4 (human),96.2%
same,residual activity,DYRK3 (human),94.5%
same,residual activity,FLT3 (human),8.19%
same,residual activity,EPHA3 (human),100%
same,residual activity,FGFR3 (human),86.2%
same,residual activity,EPHA2 (human),99.2%
same,residual activity,IRAK1 (human),81.8%
same,residual activity,PDGFRB (human),82.6%
same,residual activity,MAP3K14 (human),101%
same,residual activity,BMX (human),92%
same,residual activity,DAPK3 (human),62.9%
same,residual activity,LTK (human),89.9%
same,residual activity,AURKA (human),60.7%
same,residual activity,PAK3 (human),97.7%
same,residual activity,MLTK (human),88.8%
same,residual activity,TEK (human),93.8%
same,residual activity,PRKCE (human),95.7%
same,residual activity,EPHA4 (human),91.3%
same,residual activity,CHEK2 (human),37.5%
same,residual activity,MAPK11 (human),93.6%
same,residual activity,ABL2 (human),93.8%
same,residual activity,BLK (human),83.9%
same,residual activity,CAMK2G (human),99.5%
same,residual activity,PDGFRA (human),97.6%
same,residual activity,TXK (human),90.3%
O=c1[nH]c2ccccc2n1C1CCN(Cc2ccc(-c3nc4cc5[nH]cnc5cc4nc3-c3ccccc3)cc2)CC1,residual activity,GSG2 (human),106%
same,residual activity,MST4 (human),102%
same,residual activity,CDK1 CCNA2 (human),102%
same,residual activity,PAK1 (human),90.6%
same,residual activity,EPHB2 (human),108%
same,residual activity,PNCK (human),95.5%
same,residual activity,MARK2 (human),92.2%
same,residual activity,MAP2K1 (human),96.8%
same,residual activity,ROCK2 (human),109%
same,residual activity,DSTYK (human),104%
same,residual activity,BRSK1 (human),98.3%
same,residual activity,FYN (human),101%
same,residual activity,MINK1 (human),103%
same,residual activity,AURKB (human),98.7%
same,residual activity,RPS6KB2 (human),102%
same,residual activity,PRKG1 (human),101% and 103%
same,residual activity,PRKX (human),101%
same,residual activity,CAMK4 (human),101%
same,residual activity,DYRK3 (human),101%
same,residual activity,FLT3 (human),94.6%
same,residual activity,EPHA3 (human),71.9%
same,residual activity,FGFR3 (human),101%
same,residual activity,EPHA2 (human),103%
same,residual activity,IRAK1 (human),109%
same,residual activity,PDGFRB (human),102%
same,residual activity,MAP3K14 (human),96.8%
same,residual activity,BMX (human),108%
same,residual activity,DAPK3 (human),106%
same,residual activity,LTK (human),95.6%
same,residual activity,AURKA (human),99%
same,residual activity,PAK3 (human),104%
same,residual activity,MLTK (human),106%
same,residual activity,TEK (human),102%
same,residual activity,PRKCE (human),109%
same,residual activity,EPHA4 (human),97.1%
same,residual activity,CHEK2 (human),100%
same,residual activity,MAPK11 (human),102%
same,residual activity,ABL2 (human),96.8%
same,residual activity,BLK (human),106%
same,residual activity,CAMK2G (human),105%
same,residual activity,PDGFRA (human),98.2%
same,residual activity,TXK (human),104%
N#C/C(=C1/Nc2ccccc2S1)c1ccnc(NCCc2cccnc2)n1,residual activity,GSG2 (human),31%
same,residual activity,MST4 (human),104%
same,residual activity,CDK1 CCNA2 (human); ATP 10 µM,83%
same,residual activity,PAK1 (human),96.5%
same,residual activity,EPHB2 (human),112%
same,residual activity,PNCK (human),100%
same,residual activity,MARK2 (human),97.9%
same,residual activity,MAP2K1 (human),93.2%
same,residual activity,ROCK2 (human),83.6%
same,residual activity,DSTYK (human),93.4%
same,residual activity,BRSK1 (human),92.7%
same,residual activity,FYN (human),93.1%
same,residual activity,MINK1 (human),93.3%
same,residual activity,AURKB (human),94%
same,residual activity,RPS6KB2 (human),96.5%
same,residual activity,PRKG1 (human),97.5% and 99.4%
same,residual activity,PRKX (human),96.4%
same,residual activity,CAMK4 (human),99%
same,residual activity,DYRK3 (human),103%
same,residual activity,FLT3 (human),58.2%
same,residual activity,EPHA3 (human),75.1%
same,residual activity,FGFR3 (human),98.2%
same,residual activity,EPHA2 (human),103%
same,residual activity,IRAK1 (human),91.8%
same,residual activity,PDGFRB (human),103%
same,residual activity,MAP3K14 (human),109%
same,residual activity,BMX (human),92.9%
same,residual activity,DAPK3 (human),109%
same,residual activity,LTK (human),83.1%
same,residual activity,AURKA (human),83.8%
same,residual activity,PAK3 (human),102%
same,residual activity,MLTK (human),90.4%
same,residual activity,TEK (human),97.5%
same,residual activity,PRKCE (human),92.1%
same,residual activity,EPHA4 (human),104%
same,residual activity,CHEK2 (human),93.9%
same,residual activity,MAPK11 (human),101%
same,residual activity,ABL2 (human),98.8%
same,residual activity,BLK (human),102%
same,residual activity,CAMK2G (human),111%
same,residual activity,PDGFRA (human),99%
same,residual activity,TXK (human),49.3%
O=C1NC(=O)c2cc(Nc3ccc(F)cc3)c(Nc3ccc(F)cc3)cc21,residual activity,GSG2 (human),95.1%
same,residual activity,MST4 (human),99%
same,residual activity,CDK1 CCNA2 (human); ATP 10 µM,96.1%
same,residual activity,PAK1 (human),95.5%
same,residual activity,EPHB2 (human),89.3%
same,residual activity,PNCK (human),97.3%
same,residual activity,MARK2 (human),98.2%
same,residual activity,MAP2K1 (human),103%
same,residual activity,ROCK2 (human),92.8%
same,residual activity,DSTYK (human),95.6%
same,residual activity,BRSK1 (human),94.3%
same,residual activity,FYN (human),99.4%
same,residual activity,MINK1 (human),99%
same,residual activity,AURKB (human),99.7%
same,residual activity,RPS6KB2 (human),93.9%
same,residual activity,PRKG1 (human),103% and 94.3%
same,residual activity,PRKX (human),103%
same,residual activity,CAMK4 (human),98.7%
same,residual activity,DYRK3 (human),97.1%
same,residual activity,FLT3 (human),91.5%
same,residual activity,EPHA3 (human),96.6%
same,residual activity,FGFR3 (human),99.7%
same,residual activity,EPHA2 (human),94.3%
same,residual activity,IRAK1 (human),88.5%
same,residual activity,PDGFRB (human),93.9%
same,residual activity,MAP3K14 (human),117%
same,residual activity,BMX (human),95.3%
same,residual activity,DAPK3 (human),101%
same,residual activity,LTK (human),99.7%
same,residual activity,AURKA (human),92.7%
same,residual activity,PAK3 (human),99.4%
same,residual activity,MLTK (human),94.5%
same,residual activity,TEK (human),97.6%
same,residual activity,PRKCE (human),97.8%
same,residual activity,EPHA4 (human),94%
same,residual activity,CHEK2 (human),94.3%
same,residual activity,MAPK11 (human),94.6%
same,residual activity,ABL2 (human),89.6%
same,residual activity,BLK (human),94.3%
same,residual activity,CAMK2G (human),101%
same,residual activity,PDGFRA (human),101%
same,residual activity,TXK (human),84.1%
